Laboratory results reported in publication PMC2824924 (Bioorganic & medicinal chemistry, 2009).

How the values were obtained:
[1] = test system: Vero cells; experiment: Cytotoxicity against Vero cells; format: cell-based, African monkey
[2] = test system: Plasmodium falciparum D6 clone (chloroquine-sensitive); experiment: In vitro antimalarial assay; format: cell-based; settings: D6, 72 h, read-out: Plasmodium falciparum D6 clone IC50
[3] = test system: Plasmodium falciparum W2 clone (chloroquine-resistant); experiment: In vitro antimalarial assay; format: cell-based; settings: W2, 72 h, read-out: Plasmodium falciparum W2 clone IC50
[4] = test system: National Cancer Institute's 60 cultured human tumor cell lines; experiment: NCI 60 human tumor cell line screen; settings: mean graph midpoint; concentration of total growth inhibition
[5] = test system: Cryptococcus neoformans; experiment: Antimicrobial assay, antifungal; settings: compared to control drug amphotericin B

| SMILES | Cytotoxicity Vero TC50 ([1]; African monkey, 48 h) | further results |
| --- | --- | --- |
| CC1=CO[C@@H]2O[C@]3(C)CC[C@H]4[C@H](C)CC[C@@H]1[C@@]24OO3 [Compound 3, Anhydrodihydroartemisinin, reference compound] | > 1,787 nM |  |
| C[C@H]1[C@@H](OCC(O)CO[C@H]2O[C@@H]3O[C@@]4(C)CC[C@H]5[C@H](C)CC[C@@H]([C@H]2C)[C@@]35OO4)O[C@@H]2O[C@@]3(C)CC[C@H]4[C@H](C)CC[C@@H]1[C@@]24OO3 (stereo partly shown) [Compound 5] | 384 nM |  |
| C=C[C@@H](CO[C@H]1O[C@@H]2O[C@@]3(C)CC[C@H]4[C@H](C)CC[C@@H]([C@H]1C)[C@@]24OO3)O[C@H]1O[C@@H]2O[C@@]3(C)CC[C@H]4[C@H](C)CC[C@@H]([C@H]1C)[C@@]24OO3 [Compound 9] | 773 nM |  |
| CCN(CC)CCCC(C)Nc1ccnc2cc(Cl)ccc12 (stereo not shown) [chloroquine] |  | IC50 [2]: 41.6 nM; IC50 [3]: 378 nM; Cytotoxicity Vero TC50 ([1]; Table 2, concentration toxic to 50% of the cells): > 14,881 nM |
| C[C@H]1[C@@H](OCc2cc(O)cc(O[C@H]3O[C@@H]4O[C@@]5(C)CC[C@H]6[C@H](C)CC[C@@H]([C@H]3C)[C@@]46OO5)c2)O[C@@H]2O[C@@]3(C)CC[C@H]4[C@H](C)CC[C@@H]1[C@@]24OO3 [Compound 6] | > 7,075 nM | MG_MID TGI [4]: 2820 nM |
| C[C@H]1[C@@H](OC[C@@H]2O[C@@H]2CO[C@H]2O[C@@H]3O[C@@]4(C)CC[C@H]5[C@H](C)CC[C@@H]([C@H]2C)[C@@]35OO4)O[C@@H]2O[C@@]3(C)CC[C@H]4[C@H](C)CC[C@@H]1[C@@]24OO3 [Compound 13] | > 7,475 nM |  |
| C[C@H]1[C@@H](OCC(=O)CO)O[C@@H]2O[C@@]3(C)CC[C@H]4[C@H](C)CC[C@@H]1[C@@]24OO3 [Compound 15] | > 13,355 nM |  |
| C[C@@H]1CC[C@H]2[C@@H](C)C(=O)O[C@@H]3O[C@@]4(C)CC[C@@H]1[C@]32OO4 [Compound 1, Artemisinin, reference compound] | > 1,686 nM |  |
| C[C@H]1[C@@H](OCc2cc(O)cc(O)c2)O[C@@H]2O[C@@]3(C)CC[C@H]4[C@H](C)CC[C@@H]1[C@@]24OO3 [Compound 16] | > 11,711 nM |  |
| C[C@H]1[C@@H](Oc2cccc(N[C@@H]3[C@H](C)O[C@@H]4O[C@@]5(C)CC[C@H]6[C@H](C)CC[C@@H]3[C@@]46OO5)c2)O[C@@H]2O[C@@]3(C)CC[C@H]4[C@H](C)CC[C@@H]1[C@@]24OO3 [Compound 7] | > 7,417 nM | In vitro antifungal activity (in words) [5]: enhanced activity compared to the control drug, amphotericin B |
| C[C@H]1[C@@H](OC[C@@H](O)[C@@H](O)CO[C@H]2O[C@@H]3O[C@@]4(C)CC[C@H]5[C@H](C)CC[C@@H]([C@H]2C)[C@@]35OO4)O[C@@H]2O[C@@]3(C)CC[C@H]4[C@H](C)CC[C@@H]1[C@@]24OO3 [Compound 11] | > 7,270 nM |  |
| C[C@H]1[C@@H](OCC(CO[C@H]2O[C@@H]3O[C@@]4(C)CC[C@H]5[C@H](C)CC[C@@H]([C@H]2C)[C@@]35OO4)OS(C)(=O)=O)O[C@@H]2O[C@@]3(C)CC[C@H]4[C@H](C)CC[C@@H]1[C@@]24OO3 (stereo partly shown) [Compound 14] | 6,403 nM |  |
| C[C@H]1[C@@H](O)O[C@@H]2O[C@@]3(C)CC[C@H]4[C@H](C)CC[C@@H]1[C@@]24OO3 [Compound 2, Dihydroartemisinin, reference compound] | 1,407 nM |  |
| C[C@H]1[C@@H](OC/C=C\CO)O[C@@H]2O[C@@]3(C)CC[C@H]4[C@H](C)CC[C@@H]1[C@@]24OO3 [Compound 17] | > 13,430 nM | In vitro antifungal activity (in words) [5]: enhanced activity compared to the control drug, amphotericin B |
| C[C@H]1[C@@H](OCC[C@@H](CO[C@H]2O[C@@H]3O[C@@]4(C)CC[C@H]5[C@H](C)CC[C@@H]([C@H]2C)[C@@]35OO4)O[C@H]2O[C@@H]3O[C@@]4(C)CC[C@H]5[C@H](C)CC[C@@H]([C@H]2C)[C@@]35OO4)O[C@@H]2O[C@@]3(C)CC[C@H]4[C@H](C)CC[C@@H]1[C@@]24OO3 [Compound 18] | 5,259 nM |  |
| C[C@H]1[C@@H](OC/C=C\CO[C@H]2O[C@@H]3O[C@@]4(C)CC[C@H]5[C@H](C)CC[C@@H]([C@H]2C)[C@@]35OO4)O[C@@H]2O[C@@]3(C)CC[C@H]4[C@H](C)CC[C@@H]1[C@@]24OO3 [Compound 8] | 709 nM |  |
| C[C@H]1[C@@H](OCC[C@H](O)CO[C@H]2O[C@@H]3O[C@@]4(C)CC[C@H]5[C@H](C)CC[C@@H]([C@H]2C)[C@@]35OO4)O[C@@H]2O[C@@]3(C)CC[C@H]4[C@H](C)CC[C@@H]1[C@@]24OO3 [Compound 10] | > 7,452 nM |  |
| C[C@H]1[C@@H](O[C@@H](CO[C@H]2O[C@@H]3O[C@@]4(C)CC[C@H]5[C@H](C)CC[C@@H]([C@H]2C)[C@@]35OO4)[C@H](O)CO)O[C@@H]2O[C@@]3(C)CC[C@H]4[C@H](C)CC[C@@H]1[C@@]24OO3 [Compound 12] | 825 nM | In vitro antifungal activity (in words) [5]: enhanced activity compared to the control drug, amphotericin B |
| C[C@H]1[C@@H](OCC(=O)CO[C@H]2O[C@@H]3O[C@@]4(C)CC[C@H]5[C@H](C)CC[C@@H]([C@H]2C)[C@@]35OO4)O[C@@H]2O[C@@]3(C)CC[C@H]4[C@H](C)CC[C@@H]1[C@@]24OO3 [Compound 4] | 257 nM |  |
